These are literature values, as cited in patent publication US20120095034A1, “PIPERIDINE DERIVATIVES USEFUL AS OREXIN RECEPTOR ANTAGONISTS” (priority 2007, published 2012).

No end group written: not given here.

The subject of the series is rats. To be noted: central administration at the onset of the normal sleep period, rat.

With “orexin-A: ligand for the orexin-1 receptor; an agonist of the orexin receptors (QPLPDCCRQKTCSCRLYELLHGAGNHAAGILTL; ends and bridges not checked; cysteine pairing not given here; UniProt O43612 34-66, looked up)”, the arousal result is “dose-related increase in arousal”.
